Key:
[1] = molecular target: T1, rat NPC1L1 (Rattus norvegicus, UniProt Q6T3U3); assay: [3H]AS binding to rNPC1L1/HEK293 cells (saturation, kinetics, competition, acid wash); conditions: for IC50: 5.36 nM [3H]AS, 4 h, 37° C., read-out: IC50 inhibition of [3H]AS binding; for Ki: rNPC1L1/HEK293 cells
T1 construct: expressed in transfected cells
Method: rNPC1L1/HEK293 and TsA201 cells were seeded at a density of 10,000 cells per well in 96-well poly-D-lysine coated plates and cells were allowed to attach for approximately 18 h at 37° C. TsA201 cells were subsequently transfected with dog NPC1L1/pcDNA5/FRT according to the manufacturer's instructions (Roche) and incubated for 3 days at 37° C. MDCKII-derived, LLC-PKI, HepG2, or CaCo-2 cells were seeded at a density of 25,000 cells per well in 96-well tissue culture treated plates, and cells were allowed to attach and differentiate for approximately 72 h at 37° C., except for CaCo-2 cells where differentiation took approximately 14 days at 37° C. […] Duplicate samples were averaged for each experimental point. […] To determine the kinetics of ligand association, cells were incubated with [^3H]AS for different periods of time. Dissociation kinetics were determined by addition of 100 μM EZE-gluc, and incubating for different periods of time. Nonspecific binding was defined in the presence of 100 μM EZE-gluc. At the end of the incubation period, cells were washed twice with 200 μl of pre-warmed DMEM to separate bound from free ligand, 1% SDS was added to the wells followed by 5 ml of Scintillant, and radioactivity associated with cells was determined using a β-counter. […] Thereafter, plates were placed on ice and cells were washed twice with ice-cold PBS, followed by ice-cold acid wash with DMEM, pH 3.5, for 1, 5 or 15 minutes. […] For Transwell experiments, MDCKII cells were seeded at 200,000 cells/well in a 24-well plate and incubated for 3 days at 37° C. […] Thereafter, both apical and basolateral compartments were washed three times with PBS, and the Transwell filter was cut out and its associated radioactivity determined using afi-counter. Data from saturation, competition and ligand dissociation experiments were analyzed as described in the literature; see, Priest, et al., 2004 Biochemistry 43:9866-9876; Knaus et al., 1995 Biochemistry 34:13627-13634. The association rate, k1, was determined by employing the pseudo-first-order rate equation k1=kobs([LR]e/[L][LR]max)) where [LR]max is the concentration of the complex at equilibrium, [L] is the concentration of ligand, [LR]max is the total receptor concentration, kobs is the slope of the pseudo-first order plot, ln([LR]e/([LR]e−[LR]t)) versus time, and [LR]t is the receptor-ligand complex at one given time point t.
Incubation of rNPC1L1/HEK293 cells with 5 nM [311]AS results in a time-dependent association of ligand with cells that reaches equilibrium in ˜3 h (FIG. 1B). The nonspecific binding component is time-independent and has been subtracted from the experimental data. A semilogarithmic transformation of the data yielded a linear dependence (FIG. 1B, inset), as expected for a pseudo-first order reaction, and the slope of this line gives kobs of 0.0208 min^−1. The association rate constant, k1, calculated as described under Example 3, is 2.4×10^6 M^−1 min^−1.
Ki values, determined as described above, are presented in Table 1 below and display the expected rank order of potency for interaction of these ligands with rat NPC1L1; Garcia-Calvo et al., 2005 Proc. Natl. Acad. Sci. USA 102:8132-8137.
Such an approach has previously been previously used to characterize cell surface, non-covalent interactions; Hopkins & Trowbridge, 1983 J. Cell Biol. 97:508-521; Chen et al., 1998 Proc. Natl. Acad. USA 95:6373-6378.

[2] = molecular target: dog NPC1L1 (Canis lupus familiaris, UniProt A0A8I3RZG1); assay: [3H]AS binding to dog NPC1L1 transiently expressed in TsA201 cells; conditions: for IC50: 4.65 nM [3H]AS, 4 h, 37° C., read-out: IC50 inhibition of [3H]AS binding; for Ki: dog NPC1L1/TsA201 cells, read-out: Ki (competition with [3H]AS)
Method: (§1) rNPC1L1/HEK293 and TsA201 cells were seeded at a density of 10,000 cells per well in 96-well poly-D-lysine coated plates and cells were allowed to attach for approximately 18 h at 37° C. TsA201 cells were subsequently transfected with dog NPC1L1/pcDNA5/FRT according to the manufacturer's instructions (Roche) and incubated for 3 days at 37° C. MDCKII-derived, LLC-PKI, HepG2, or CaCo-2 cells were seeded at a density of 25,000 cells per well in 96-well tissue culture treated plates, and cells were allowed to attach and differentiate for approximately 72 h at 37° C., except for CaCo-2 cells where differentiation took approximately 14 days at 37° C. […] Duplicate samples were averaged for each experimental point. […] Dissociation kinetics were determined by addition of 100 μM EZE-gluc, and incubating for different periods of time. Nonspecific binding was defined in the presence of 100 μM EZE-gluc. At the end of the incubation period, cells were washed twice with 200 μl of pre-warmed DMEM to separate bound from free ligand, 1% SDS was added to the wells followed by 5 ml of Scintillant, and radioactivity associated with cells was determined using a β-counter. […] Thereafter, plates were placed on ice and cells were washed twice with ice-cold PBS, followed by ice-cold acid wash with DMEM, pH 3.5, for 1, 5 or 15 minutes. […] For Transwell experiments, MDCKII cells were seeded at 200,000 cells/well in a 24-well plate and incubated for 3 days at 37° C. […] Thereafter, both apical and basolateral compartments were washed three times with PBS, and the Transwell filter was cut out and its associated radioactivity determined using afi-counter. Data from saturation, competition and ligand dissociation experiments were analyzed as described in the literature; see, Priest, et al., 2004 Biochemistry 43:9866-9876; Knaus et al., 1995 Biochemistry 34:13627-13634. The association rate, k1, was determined by employing the pseudo-first-order rate equation k1=kobs([LR]e/[L][LR]max)) where [LR]max is the concentration of the complex at equilibrium, [L] is the concentration of ligand, [LR]max is the total receptor concentration, kobs is the slope of the pseudo-first order plot, ln([LR]e/([LR]e−[LR]t)) versus time, and [LR]t is the receptor-ligand complex at one given time point t.
To further validate this statement, cloned dog NPC1L1 was transiently expressed in TsA201 cells and binding of [^3]AS to these cells was then characterized (FIG. 5 and Table 1).

[3] = molecular target: dog NPC1L1 endogenously expressed in MDCKII cells (Canis lupus familiaris, UniProt A0A8I3RZG1); assay: [3H]AS binding to MDCKII cells (saturation, kinetics, competition, acid wash); conditions: for IC50: 5.49 nM [3H]AS, 4 h, 37° C., read-out: IC50 inhibition of [3H]AS binding; for Ki: MDCKII cells
Method: as §1

dog NPC1L1, sequence (A0A8I3RZG1 entry or part of it): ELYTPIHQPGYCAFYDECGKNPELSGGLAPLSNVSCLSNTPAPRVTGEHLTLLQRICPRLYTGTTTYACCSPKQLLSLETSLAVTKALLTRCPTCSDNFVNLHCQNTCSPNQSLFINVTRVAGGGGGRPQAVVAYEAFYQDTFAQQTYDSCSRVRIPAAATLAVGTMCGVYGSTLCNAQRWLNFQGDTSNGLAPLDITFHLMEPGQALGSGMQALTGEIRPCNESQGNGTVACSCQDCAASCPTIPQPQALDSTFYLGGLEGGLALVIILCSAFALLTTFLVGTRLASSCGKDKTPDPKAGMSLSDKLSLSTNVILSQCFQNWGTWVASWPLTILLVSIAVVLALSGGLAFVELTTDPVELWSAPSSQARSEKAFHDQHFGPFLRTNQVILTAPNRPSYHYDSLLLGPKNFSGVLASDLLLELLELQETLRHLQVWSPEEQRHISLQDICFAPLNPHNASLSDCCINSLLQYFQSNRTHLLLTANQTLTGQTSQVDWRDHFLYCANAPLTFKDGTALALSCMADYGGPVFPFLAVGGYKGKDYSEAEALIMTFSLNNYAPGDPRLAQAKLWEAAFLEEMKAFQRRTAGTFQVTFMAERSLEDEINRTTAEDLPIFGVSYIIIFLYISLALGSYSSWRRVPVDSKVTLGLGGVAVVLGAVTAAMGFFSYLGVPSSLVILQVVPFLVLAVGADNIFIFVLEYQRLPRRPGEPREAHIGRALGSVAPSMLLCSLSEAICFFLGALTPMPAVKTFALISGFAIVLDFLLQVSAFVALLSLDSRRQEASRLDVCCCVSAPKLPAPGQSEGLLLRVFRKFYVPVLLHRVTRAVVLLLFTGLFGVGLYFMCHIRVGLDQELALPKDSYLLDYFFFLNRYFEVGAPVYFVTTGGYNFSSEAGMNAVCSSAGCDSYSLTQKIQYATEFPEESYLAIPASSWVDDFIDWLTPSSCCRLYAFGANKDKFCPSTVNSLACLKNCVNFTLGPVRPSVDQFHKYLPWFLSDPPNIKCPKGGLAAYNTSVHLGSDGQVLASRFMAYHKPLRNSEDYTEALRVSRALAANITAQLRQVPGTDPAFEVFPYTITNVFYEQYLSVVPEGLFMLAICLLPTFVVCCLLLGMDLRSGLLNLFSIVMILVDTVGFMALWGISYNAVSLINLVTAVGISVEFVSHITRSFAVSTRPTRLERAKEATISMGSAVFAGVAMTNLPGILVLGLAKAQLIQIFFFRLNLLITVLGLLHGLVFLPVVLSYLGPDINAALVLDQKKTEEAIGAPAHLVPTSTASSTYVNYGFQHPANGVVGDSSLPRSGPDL
dog NPC1L1 endogenously expressed in MDCKII cells, sequence (A0A8I3RZG1 entry or part of it): as above

Compound	IC50 [1] [nM]	Ki [1] [nM]	IC50 [2] [nM]	Ki [2] [nM]	IC50 [3] [nM]	Ki [3] [nM]	fold weaker than AS and PS as inhibitor of [3H]AS binding ([3]; MDCK cells) [fold]
O=C1[C@H](CC[C@H](O)c2ccc(F)cc2)[C@@H](c2ccc(O)cc2)N1c1ccc(F)cc1 [EZE, Ezetimibe]	398	209 ± 40.4	111	21.5 ± 7.56	126	14 ± 4.11	
O=C(O)[C@H]1O[C@@H](Oc2ccc([C@@H]3[C@@H](CC[C@H](O)c4ccc(F)cc4)C(=O)N3c3ccc(F)cc3)cc2)[C@H](O)[C@@H](O)[C@@H]1O [EZE-gluc, ezetimibe glucuronide]	182	95.1 ± 8.62	27	5.51 ± 1.52	24	3.51 ± 0.89	~10
COC(=O)[C@H]1O[C@@H](Oc2ccc([C@@H]3[C@@H](CC[C@H](O)c4ccc(F)cc4)C(=O)N3c3ccc(C#CCNS(C)(=O)=O)cc3)cc2)[C@H](O)[C@@H](O)[C@@H]1O [PS, 4-[(2S,3R)-3-[(3S)-3-(4-fluorophenyl)-3-hydroxypropyl]-1-(4-{3-[(methylsulfonyl)amino]prop-1-yn-1-yl}phenyl)-4-oxoazetidin-2-yl]phenyl methyl-β-D-glucopyranosiduronate]	6.61	4.07 ± 1.47	3.73	0.97 ± 0.08	3.02	0.33 ± 0.05	

Reference: patent US20100184094A1, “USE OF MDCK CELLS IN THE EVALUATION OF CHOLESTEROL MODULATORS” (priority 2007, published 2010)
